From patent US9878986B2, “Compounds for selective histone deacetylase inhibitors, and pharmaceutical composition comprising the same” (CHONG KUN DANG PHARMACEUTICAL CORP., priority 2013, dated 2018)

Columns and labels:
HDAC 4 = biological target: T1, HDAC 4 (Homo sapiens, UniProt P56524); test: HDAC panel by Reaction Biology Corp., HDAC 4; assay type: biochemical; details: read-out: HDAC inhibitory activities, HDAC 4
T1 construct: Reaction Biology Corp
From the text: (§1) The inhibitory activities of Compounds 255 and 374 on all HDACs were confirmed (by Reaction Biology Corp.).

[1] = system: histone acetylation (HDAC1) in RPMI8226 cells; test: Acetylation of Histone H3 and Histone H4 in cells by Western blot; assay type: cell-based; details: 24 hours
Protocol: To determine the selectivity for HDAC6 in cells, the acetylation levels of Tubulin, Histone H3 and Histone H4 depending on the concentration of compounds were measured by Western blot.
RPMI8226 (1.0×10^6 cells/well) cells were seeded on six-well plates and treated with drugs (Compounds 255 and 374) at each concentration. After 24 hours, the proteins were extracted with RIPA buffer and quantified by the Bradford method. 25 μg of protein was lysed in sample buffer, electrophoresed on a 4-12% gradient gel, and then transferred to nitrocellulose membranes for 50 minutes. Then transferred protein was blocked with 5% skim milk for 1 hour. Anti-acetyl H3 (1:2,000), anti-acetyl H4 (1:5,000), anti-acetyl tubulin (1:5,000), and anti-β-actin antibody (1:10,000) were added into 5% skim milk, and the membranes were immersed in the skim milk, reacted at 4° C. for 16 hours, and then washed three times for 10 minutes each with 1×TBS-T. Then, IgG-HRP antibody (1:5,000) was added into 5% skim milk, and then the membranes were immersed in the skim milk, reacted at room temperature for 40 minutes, and then washed three times for […] each with 1×TBS-T. Then, the acetylation levels were determined with a LAS 3000 using ECL solution. […]

HDAC 7 = biological target: T2, HDAC 7 (Homo sapiens, UniProt Q8WUI4); test: HDAC panel by Reaction Biology Corp., HDAC 7; assay type: biochemical; details: read-out: HDAC inhibitory activities, HDAC 7
T2 construct: Reaction Biology Corp
T2 sequence (Q8WUI4 1-952): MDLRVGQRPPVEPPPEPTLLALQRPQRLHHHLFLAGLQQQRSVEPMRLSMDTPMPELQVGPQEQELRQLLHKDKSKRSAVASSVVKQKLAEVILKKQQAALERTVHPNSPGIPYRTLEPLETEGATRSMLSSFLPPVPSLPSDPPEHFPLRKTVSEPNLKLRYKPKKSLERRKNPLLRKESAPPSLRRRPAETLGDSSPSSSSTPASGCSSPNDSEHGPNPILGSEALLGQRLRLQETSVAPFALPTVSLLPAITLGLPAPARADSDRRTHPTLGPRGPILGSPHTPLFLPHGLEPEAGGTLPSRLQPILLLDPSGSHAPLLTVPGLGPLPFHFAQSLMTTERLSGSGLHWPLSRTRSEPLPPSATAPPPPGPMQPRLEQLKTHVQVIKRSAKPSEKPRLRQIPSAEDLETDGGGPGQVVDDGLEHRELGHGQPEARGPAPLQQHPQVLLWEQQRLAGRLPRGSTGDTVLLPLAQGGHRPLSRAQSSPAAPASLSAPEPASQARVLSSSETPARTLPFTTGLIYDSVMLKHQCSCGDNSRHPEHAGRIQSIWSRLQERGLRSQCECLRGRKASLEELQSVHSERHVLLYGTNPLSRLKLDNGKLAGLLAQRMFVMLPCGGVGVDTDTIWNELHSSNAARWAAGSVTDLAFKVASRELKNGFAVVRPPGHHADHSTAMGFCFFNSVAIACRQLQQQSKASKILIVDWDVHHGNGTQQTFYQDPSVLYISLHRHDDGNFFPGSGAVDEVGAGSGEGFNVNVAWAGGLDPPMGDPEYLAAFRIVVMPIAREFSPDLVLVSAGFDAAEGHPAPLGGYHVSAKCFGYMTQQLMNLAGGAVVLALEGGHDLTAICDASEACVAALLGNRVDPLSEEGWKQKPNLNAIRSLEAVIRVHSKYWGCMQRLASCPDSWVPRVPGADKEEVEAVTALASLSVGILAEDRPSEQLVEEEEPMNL
From the text: as §1

HDAC 9 = biological target: T3, HDAC 9 (Homo sapiens, UniProt Q9UKV0); test: HDAC panel by Reaction Biology Corp., HDAC 9; assay type: biochemical; details: read-out: HDAC inhibitory activities, HDAC 9
T3 construct: Reaction Biology Corp
T3 sequence (Q9UKV0 whole entry): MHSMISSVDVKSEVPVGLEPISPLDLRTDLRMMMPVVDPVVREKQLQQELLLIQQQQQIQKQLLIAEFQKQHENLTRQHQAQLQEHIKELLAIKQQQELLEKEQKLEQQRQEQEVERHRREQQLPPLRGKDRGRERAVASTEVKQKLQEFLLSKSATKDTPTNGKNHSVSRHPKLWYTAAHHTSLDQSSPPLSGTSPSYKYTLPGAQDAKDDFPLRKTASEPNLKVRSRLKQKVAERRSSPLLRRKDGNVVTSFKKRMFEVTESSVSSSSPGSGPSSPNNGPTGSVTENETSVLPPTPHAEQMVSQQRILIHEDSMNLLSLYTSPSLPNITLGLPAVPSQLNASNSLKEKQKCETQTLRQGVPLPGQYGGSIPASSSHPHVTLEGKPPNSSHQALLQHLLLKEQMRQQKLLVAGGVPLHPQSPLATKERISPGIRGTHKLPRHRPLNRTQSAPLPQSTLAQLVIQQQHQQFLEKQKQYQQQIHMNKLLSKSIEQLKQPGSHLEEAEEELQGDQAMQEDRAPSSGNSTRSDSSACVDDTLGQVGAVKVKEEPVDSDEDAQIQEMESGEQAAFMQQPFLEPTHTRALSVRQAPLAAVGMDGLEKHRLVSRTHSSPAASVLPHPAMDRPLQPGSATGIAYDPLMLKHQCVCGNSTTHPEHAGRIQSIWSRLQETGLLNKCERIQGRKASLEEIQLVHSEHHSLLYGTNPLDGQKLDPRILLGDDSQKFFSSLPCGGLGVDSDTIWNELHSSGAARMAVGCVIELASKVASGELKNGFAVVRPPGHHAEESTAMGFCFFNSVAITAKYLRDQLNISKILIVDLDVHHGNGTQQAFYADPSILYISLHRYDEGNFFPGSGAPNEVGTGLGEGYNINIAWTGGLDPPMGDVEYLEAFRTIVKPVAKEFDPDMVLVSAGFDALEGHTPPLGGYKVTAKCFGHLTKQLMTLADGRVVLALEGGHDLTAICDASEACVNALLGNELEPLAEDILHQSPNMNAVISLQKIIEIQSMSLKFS
From the text: as §1

HDAC 8 = biological target: T4, HDAC 8 (Homo sapiens, UniProt Q9BY41); test: HDAC panel by Reaction Biology Corp., HDAC 8; assay type: biochemical; details: read-out: HDAC inhibitory activities, HDAC 8
T4 construct: Reaction Biology Corp
T4 sequence (Q9BY41 1-377): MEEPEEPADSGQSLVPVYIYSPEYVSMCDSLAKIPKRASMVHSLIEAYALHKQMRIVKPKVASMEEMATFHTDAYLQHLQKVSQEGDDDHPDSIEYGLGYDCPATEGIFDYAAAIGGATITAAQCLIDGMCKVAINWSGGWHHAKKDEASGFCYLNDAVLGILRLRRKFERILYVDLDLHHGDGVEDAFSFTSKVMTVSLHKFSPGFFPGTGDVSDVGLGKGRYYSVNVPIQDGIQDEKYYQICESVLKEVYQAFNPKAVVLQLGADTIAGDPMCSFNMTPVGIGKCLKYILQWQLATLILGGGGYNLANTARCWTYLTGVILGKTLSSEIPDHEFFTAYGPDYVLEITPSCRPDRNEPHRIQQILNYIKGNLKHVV
From the text: as §1

T1 sequence (P56524 whole entry): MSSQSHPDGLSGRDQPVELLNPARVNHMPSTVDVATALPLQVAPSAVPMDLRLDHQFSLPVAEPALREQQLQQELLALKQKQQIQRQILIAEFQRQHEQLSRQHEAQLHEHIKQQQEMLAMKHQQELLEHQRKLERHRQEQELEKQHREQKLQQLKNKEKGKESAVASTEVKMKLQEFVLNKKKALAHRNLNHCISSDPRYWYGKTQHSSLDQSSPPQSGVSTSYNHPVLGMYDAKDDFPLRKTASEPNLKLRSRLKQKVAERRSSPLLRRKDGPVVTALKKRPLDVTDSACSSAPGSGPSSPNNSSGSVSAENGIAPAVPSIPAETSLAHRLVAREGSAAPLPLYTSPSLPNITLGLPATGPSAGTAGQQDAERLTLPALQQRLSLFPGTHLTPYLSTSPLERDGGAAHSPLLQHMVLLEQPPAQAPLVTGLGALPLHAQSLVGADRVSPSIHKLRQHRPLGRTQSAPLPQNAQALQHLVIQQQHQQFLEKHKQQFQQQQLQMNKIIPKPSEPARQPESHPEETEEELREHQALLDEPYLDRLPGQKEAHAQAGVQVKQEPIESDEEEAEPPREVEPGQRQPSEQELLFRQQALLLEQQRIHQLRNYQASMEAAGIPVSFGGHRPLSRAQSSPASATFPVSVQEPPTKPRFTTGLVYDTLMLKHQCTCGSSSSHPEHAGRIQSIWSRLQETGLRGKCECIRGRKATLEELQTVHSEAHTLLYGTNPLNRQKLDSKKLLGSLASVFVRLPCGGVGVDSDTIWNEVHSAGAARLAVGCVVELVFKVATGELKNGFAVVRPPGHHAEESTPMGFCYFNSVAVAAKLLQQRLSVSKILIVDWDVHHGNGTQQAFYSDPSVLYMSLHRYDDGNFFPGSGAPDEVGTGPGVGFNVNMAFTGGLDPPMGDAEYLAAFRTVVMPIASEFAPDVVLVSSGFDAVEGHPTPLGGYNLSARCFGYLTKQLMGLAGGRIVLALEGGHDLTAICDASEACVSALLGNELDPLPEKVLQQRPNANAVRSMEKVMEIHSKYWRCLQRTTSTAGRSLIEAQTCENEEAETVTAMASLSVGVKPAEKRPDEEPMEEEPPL

IC50 (HDAC 4) | IC50 (HDAC 7) | IC50 (HDAC 9) | IC50 (HDAC 8) | Structure (SMILES) | concentration at which histone acetylation (HDAC1) was expressed [1]
16.4 µM | 5.25 µM | 10.3 µM | 2.07 µM | O=C(NO)c1ccc(CN(C(=O)N2CCOCC2)c2cccc(C(F)(F)F)c2)cc1 [Compound 374, N-(4-(hydroxycarbamoyl)benzyl)-N-(3-(trifluoromethyl)phenyl)morpholine-4-carboxamide] | 10 µM
6.86 µM | 1.5 µM | 3.52 µM | 0.65 µM | O=C(NO)c1ccc(CN(C(=O)N2CCOCC2)c2cccc(Br)c2)cc1 [Compound 255, N-(3-bromophenyl)-N-(4-(hydroxycarbamoyl)benzyl)morpholine-4-carboxamide] | 1 µM
